Experimental findings from ChEMBL document CHEMBL1135368, “The discovery of small molecule carbamates as potent dual alpha(4)beta(1)/alpha(4)beta(7) integrin antagonists” (Bioorg Med Chem Lett, 2002) are described below.

The subject of data set [1] is Rattus norvegicus. The data set can be described thus: Plasma clearance value at intravenous dose of 1 mg/kg (2 mg/kg po (cassette dosing)) in Dawley rat. Format: ADME, organism-based. Also noted: dose 1 mg/kg. Particulars: in vivo.
Data set [2] in a line: Tested for plasma half life period in rat (0-8 hr). It counts as ADME, organism-based.
In data set [3] the target is T1, Integrin alpha-4/beta-7 (Homo sapiens, UniProt P13612+P26010).
T1 sequence (P13612 whole entry): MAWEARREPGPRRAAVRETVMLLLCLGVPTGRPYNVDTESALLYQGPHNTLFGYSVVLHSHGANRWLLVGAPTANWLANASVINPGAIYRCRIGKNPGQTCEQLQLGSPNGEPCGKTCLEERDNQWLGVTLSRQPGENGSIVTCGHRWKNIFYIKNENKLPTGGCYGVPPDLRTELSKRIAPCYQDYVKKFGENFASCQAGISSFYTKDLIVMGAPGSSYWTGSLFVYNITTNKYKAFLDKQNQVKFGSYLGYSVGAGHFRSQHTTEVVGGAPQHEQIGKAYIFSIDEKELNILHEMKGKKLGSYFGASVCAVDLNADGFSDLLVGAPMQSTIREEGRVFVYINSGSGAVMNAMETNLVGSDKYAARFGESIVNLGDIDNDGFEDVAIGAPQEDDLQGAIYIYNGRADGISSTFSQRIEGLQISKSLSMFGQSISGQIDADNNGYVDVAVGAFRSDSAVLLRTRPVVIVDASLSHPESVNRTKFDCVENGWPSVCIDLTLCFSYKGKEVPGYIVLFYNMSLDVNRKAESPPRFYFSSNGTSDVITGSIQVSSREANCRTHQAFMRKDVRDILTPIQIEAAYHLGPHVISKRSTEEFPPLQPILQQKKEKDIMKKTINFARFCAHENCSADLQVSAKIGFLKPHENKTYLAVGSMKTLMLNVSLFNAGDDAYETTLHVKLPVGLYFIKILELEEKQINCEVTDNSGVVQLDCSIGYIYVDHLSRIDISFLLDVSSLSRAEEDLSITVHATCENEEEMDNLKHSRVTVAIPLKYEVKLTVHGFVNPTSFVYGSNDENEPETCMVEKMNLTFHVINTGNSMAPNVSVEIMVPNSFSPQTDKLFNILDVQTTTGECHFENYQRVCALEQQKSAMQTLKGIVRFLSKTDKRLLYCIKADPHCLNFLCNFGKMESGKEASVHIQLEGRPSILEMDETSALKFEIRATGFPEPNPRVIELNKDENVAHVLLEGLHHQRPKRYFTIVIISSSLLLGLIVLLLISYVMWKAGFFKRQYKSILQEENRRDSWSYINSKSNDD
T1 sequence (P26010 whole entry): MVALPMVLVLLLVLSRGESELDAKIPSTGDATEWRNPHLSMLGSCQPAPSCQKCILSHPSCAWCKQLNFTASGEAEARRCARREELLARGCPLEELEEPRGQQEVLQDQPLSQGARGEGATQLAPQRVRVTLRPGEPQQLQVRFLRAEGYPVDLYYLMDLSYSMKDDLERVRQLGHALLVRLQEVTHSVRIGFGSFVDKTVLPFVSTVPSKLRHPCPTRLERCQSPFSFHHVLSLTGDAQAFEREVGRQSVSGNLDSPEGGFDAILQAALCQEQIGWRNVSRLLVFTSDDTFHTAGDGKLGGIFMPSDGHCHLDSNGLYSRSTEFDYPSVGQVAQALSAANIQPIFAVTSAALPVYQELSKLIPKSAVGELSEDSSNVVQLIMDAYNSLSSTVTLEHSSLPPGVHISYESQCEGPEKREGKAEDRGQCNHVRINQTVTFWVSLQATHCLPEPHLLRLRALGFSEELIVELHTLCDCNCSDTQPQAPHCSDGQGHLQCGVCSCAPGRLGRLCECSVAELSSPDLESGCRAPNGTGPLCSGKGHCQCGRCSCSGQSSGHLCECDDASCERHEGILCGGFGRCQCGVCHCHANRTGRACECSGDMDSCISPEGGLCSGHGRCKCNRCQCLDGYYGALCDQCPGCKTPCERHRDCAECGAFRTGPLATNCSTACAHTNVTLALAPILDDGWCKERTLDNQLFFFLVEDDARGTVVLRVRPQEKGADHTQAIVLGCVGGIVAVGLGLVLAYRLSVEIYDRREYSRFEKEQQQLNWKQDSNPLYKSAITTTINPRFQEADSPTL
The experiment in a line: Alpha4-beta7 integrin binding affinity was determined in duplicate by a radioligand binding assay using [125I]-VCAM-Ig and a suspension of RPMI-8866 cells (a human B cell line alpha-4-beta-1-beta-7+). It counts as cell-based.

The target in another data set is Integrin alpha-4/beta-1 (Homo sapiens, UniProt P05556+P13612). The experiment in a line: Alpha4-beta1 integrin binding affinity was assessed by measuring the reduction in binding of [125I]VCAM-Ig to a suspension of Jurkat cells (a human T cell line alpha-4-beta-1-beta-7). It counts as cell-based.
Sequence of Integrin alpha-4/beta-1 (P05556 whole entry, one chain of several): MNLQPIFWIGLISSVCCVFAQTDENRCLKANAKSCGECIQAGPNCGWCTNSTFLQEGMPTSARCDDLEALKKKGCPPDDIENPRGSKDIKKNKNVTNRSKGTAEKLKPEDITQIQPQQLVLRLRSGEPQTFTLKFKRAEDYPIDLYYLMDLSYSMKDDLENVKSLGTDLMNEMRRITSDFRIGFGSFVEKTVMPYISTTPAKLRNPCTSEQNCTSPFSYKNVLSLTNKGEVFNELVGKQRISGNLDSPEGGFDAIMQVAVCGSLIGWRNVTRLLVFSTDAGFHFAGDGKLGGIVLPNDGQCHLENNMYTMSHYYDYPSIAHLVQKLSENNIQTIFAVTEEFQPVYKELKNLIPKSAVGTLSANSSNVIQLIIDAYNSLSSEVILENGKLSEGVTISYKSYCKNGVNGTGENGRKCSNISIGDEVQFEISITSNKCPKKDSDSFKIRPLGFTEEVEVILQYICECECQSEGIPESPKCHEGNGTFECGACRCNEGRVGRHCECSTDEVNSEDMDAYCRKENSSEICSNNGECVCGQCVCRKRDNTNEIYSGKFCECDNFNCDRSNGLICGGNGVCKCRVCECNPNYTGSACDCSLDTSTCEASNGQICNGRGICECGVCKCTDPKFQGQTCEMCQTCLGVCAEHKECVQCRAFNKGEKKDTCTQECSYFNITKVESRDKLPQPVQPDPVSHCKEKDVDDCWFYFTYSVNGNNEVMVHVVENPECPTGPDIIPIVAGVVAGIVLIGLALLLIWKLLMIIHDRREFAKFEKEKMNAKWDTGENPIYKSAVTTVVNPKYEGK
Data set [4] concerns the target T1, Integrin alpha-4/beta-7. The experiment in a line: Inhibition of [125I]VCAM-Ig binding to Alpha4-beta7 integrin of RPMI-8866 cells. Format: cell-based.
For data set [5], the target named is T1, Integrin alpha-4/beta-7. The data set can be described thus: Inhibition of [125I]VCAM-Ig binding to Alpha4-beta7 integrin of RPMI-8866 cells at […] (inactive). Format: cell-based.
The subject of data set [6] is Rattus norvegicus. The experiment in a line: Plasma clearance value at intravenous dose of 1 mg/kg (2 mg/kg po (cassette dosing) in Dawley rat. Set-up: dose 1 mg/kg. Particulars: in vivo. It counts as ADME, organism-based.

Starred links: 1 amine or outer side, 2 acyl side, 3 side chain; linkers in the order of their positions; H or OH if unused. Residues, ends and D or L forms follow the SMILES beside them. Groups on a side chain read outwards from the residue. *: point of attachment. Pyrrolidide = C1CCN(*)C1; CO = O=C([*:1])[*:2]; Ms = CS(=O)(=O)*

The term half-life denotes the time needed for the level to fall by half in the phase considered. A high value points to slow loss. For orientation: IC50 means the concentration that inhibits the measured activity by half. A higher IC50 goes with lower potency. As to `O=C(O)[C@H](Cc1ccc(OC(=O)N2CCCC2)cc1)NC(=O)[C@@H]1CCCN1S(=O)(=O)c1ccccc1`, the Clp in the data set with Rattus norvegicus [1] worked out at 176 mL/min/kg. This compound also had a half-life in data set [2] of 12 min. In addition, the 50% inhibitory concentration (IC50) on Integrin alpha-4/beta-7 [3] was determined as 2.83 nM; on Integrin alpha-4/beta-1 it was 0.14 nM.
In the case of `COc1ccc(C[C@H](NC(=O)[C@@H]2CCCN2S(=O)(=O)c2cc(Cl)cc(Cl)c2)C(=O)O)cc1`, the half-inhibitory concentration (IC50) is 362 nM at Integrin alpha-4/beta-7 [4] and 0.37 nM at Integrin alpha-4/beta-1.
For the compound `O=C(O)[C@H](Cc1ccc(OCc2nnn[nH]2)cc1)NC(=O)[C@@H]1CCCN1S(=O)(=O)c1cc(Cl)cc(Cl)c1`, the IC50 turned out to be 166 nM on Integrin alpha-4/beta-7 [3] and 0.21 nM on Integrin alpha-4/beta-1.
`COCCOc1ccc(C[C@H](NC(=O)[C@@H]2CCCN2S(=O)(=O)c2cc(Cl)cc(Cl)c2)C(=O)O)cc1`: the results for the IC50 at Integrin alpha-4/beta-7 [3] and on Integrin alpha-4/beta-1 were 62.5 nM and 0.28 nM, respectively.
For `O=C(Oc1ccc(C[C@H](NC(=O)[C@@H]2CCCN2S(=O)(=O)c2cc(Cl)cc(Cl)c2)C(=O)O)cc1)C1CCCC1` the same measures were 58.6 nM and 0.22 nM.
As for `CC(C)(C)OC(=O)COc1cccc(C[C@H](NC(=O)[C@]2(C)CCCN2S(=O)(=O)c2cc(Cl)cc(Cl)c2)C(=O)O)c1`, the half-inhibitory concentration (IC50) entry was “Not Active” on Integrin alpha-4/beta-7 [5] and 0.41 nM on Integrin alpha-4/beta-1.
As to `O=C(O)[C@H](Cc1ccc(O)cc1)NC(=O)[C@@H]1CCCN1S(=O)(=O)c1cc(Cl)cc(Cl)c1`, the IC50 on Integrin alpha-4/beta-7 [4] is 820 nM; on Integrin alpha-4/beta-1 it was 0.34 nM.
In the case of `CCCCOc1ccc(C[C@H](NC(=O)[C@@H]2CCCN2S(=O)(=O)c2cc(Cl)cc(Cl)c2)C(=O)O)cc1`, the half-maximal inhibitory concentration (IC50) on Integrin alpha-4/beta-7 [4] worked out at 299 nM; at Integrin alpha-4/beta-1, 1.11 nM.
Turning to `CC(C)(C)Oc1cccc(C[C@H](NC(=O)[C@]2(C)CCCN2S(=O)(=O)c2cc(Cl)cc(Cl)c2)C(=O)O)c1`, the IC50 result on Integrin alpha-4/beta-7 [5] is “Not Active”; on Integrin alpha-4/beta-1, 1.79 nM.
For the compound `O=C(Oc1ccc(C[C@H](NC(=O)[C@@H]2CCCN2S(=O)(=O)c2cc(Cl)cc(Cl)c2)C(=O)O)cc1)c1ccccc1`, the IC50 on Integrin alpha-4/beta-7 [3] amounted to 43.2 nM; on Integrin alpha-4/beta-1, 0.45 nM.
For `O=C(Oc1ccc(C[C@H](NC(=O)[C@@H]2CCCN2S(=O)(=O)c2cc(Cl)cc(Cl)c2)C(=O)O)cc1)c1ccc[nH]1` the same measures were 13 nM and 0.26 nM.
As for `CC(C)(C)Oc1ccc(C[C@H](NC(=O)[C@]2(C)CCCN2S(=O)(=O)c2cc(Cl)cc(Cl)c2)C(=O)O)cc1`, the results for the IC50 at Integrin alpha-4/beta-7 [4] and at Integrin alpha-4/beta-1 were 647 nM and 0.27 nM, respectively.
For `CC(C)(C)Oc1ccc(C[C@H](NC(=O)[C@@H]2CCCN2S(=O)(=O)c2cc(Cl)cc(Cl)c2)C(=O)O)cc1` the same measures were 116 nM and 0.21 nM.
On to `CC(C)N(C(=O)Oc1ccc(C[C@H](NC(=O)[C@]2(C)CCCN2S(=O)(=O)c2cc(Cl)cc(Cl)c2)C(=O)O)cc1)C(C)C`, for which the figures for the IC50 at Integrin alpha-4/beta-7 [3] and at Integrin alpha-4/beta-1 were 62.4 nM and 0.22 nM, respectively.
Regarding `C[C@@]1(C(=O)N[C@@H](Cc2cccc(OC(=O)N3CCCC3)c2)C(=O)O)CCCN1S(=O)(=O)c1cc(Cl)cc(Cl)c1`, the IC50 entry is “Not Active” at Integrin alpha-4/beta-7 [5] and 3.65 nM on Integrin alpha-4/beta-1.
Take `O=C(O)[C@H](Cc1ccc(OCc2ccccc2)cc1)NC(=O)[C@@H]1CCCN1S(=O)(=O)c1cc(Cl)cc(Cl)c1`: the IC50 at Integrin alpha-4/beta-7 [3] stood at 849 nM; on Integrin alpha-4/beta-1, 1.94 nM.
For `CCN(CC)C(=O)Oc1ccc(C[C@H](NC(=O)[C@]2(C)CCCN2S(=O)(=O)c2cc(Cl)cc(Cl)c2)C(=O)O)cc1`, the half-maximal inhibitory concentration (IC50) on Integrin alpha-4/beta-7 [3] was 29.8 nM; on Integrin alpha-4/beta-1, 0.19 nM.
As for `C[C@@]1(C(=O)N[C@@H](Cc2ccc(OC(=O)N3CCOCC3)cc2)C(=O)O)CCCN1S(=O)(=O)c1cc(Cl)cc(Cl)c1`, the Clp in the data set on Rattus norvegicus [1] came out at 50 mL/min/kg. Also, the IC50 stood at 3.51 nM on Integrin alpha-4/beta-7 [3] and 0.13 nM at Integrin alpha-4/beta-1.
Consider `CN(C(=O)Oc1ccc(C[C@H](NC(=O)[C@]2(C)CCCN2S(=O)(=O)c2cc(Cl)cc(Cl)c2)C(=O)O)cc1)c1ccccc1`, for which the Clp in the data set with Rattus norvegicus [1] was determined as 38 mL/min/kg. In data set [2], this compound had a half-life of 12 min. Further, the IC50 at Integrin alpha-4/beta-7 [3] stood at 12.3 nM; at Integrin alpha-4/beta-1, 0.25 nM.
For the compound `CC(C)(C)OC(=O)COc1ccc(C[C@H](NC(=O)[C@@H]2CCCN2S(=O)(=O)c2cc(Cl)cc(Cl)c2)C(=O)O)cc1`, the half-inhibitory concentration (IC50) stood at 211 nM at Integrin alpha-4/beta-7 [3] and 0.13 nM at Integrin alpha-4/beta-1.
For `N#CCOc1ccc(C[C@H](NC(=O)[C@@H]2CCCN2S(=O)(=O)c2cc(Cl)cc(Cl)c2)C(=O)O)cc1` the same measures were 246 nM and 0.26 nM.
Take `O=C(O)[C@H](Cc1ccc(OC(=O)N2CCCC2)cc1)NC(=O)[C@@H]1CCCN1S(=O)(=O)c1cc(Cl)cc(Cl)c1`: the IC50 at Integrin alpha-4/beta-7 [3] was determined as 1.92 nM; on Integrin alpha-4/beta-1, 0.13 nM.
`C[C@@]1(C(=O)N[C@@H](Cc2ccc(OC(=O)N3CCCC3)cc2)C(=O)O)CCCN1S(=O)(=O)c1cc(Cl)cc(Cl)c1`: the Clp in the data set with Rattus norvegicus [6] is 27 mL/min/kg. Also, the IC50 at Integrin alpha-4/beta-7 [3] is 5.26 nM; on Integrin alpha-4/beta-1, 0.17 nM.
Consider `CC(=O)COc1ccc(C[C@H](NC(=O)[C@@H]2CCCN2S(=O)(=O)c2cc(Cl)cc(Cl)c2)C(=O)O)cc1`, for which the IC50 at Integrin alpha-4/beta-7 [3] was determined as 51.4 nM; on Integrin alpha-4/beta-1, 0.18 nM.
Taken in the same sequence, the figures for `CS(=O)(=O)N1CCC[C@H]1C(=O)N[C@@H](Cc1ccc(OC(=O)N2CCCC2)cc1)C(=O)O` (Ms-Pro-Tyr([CO-Pyrrolidide])-OH) were 4.4 nM and 0.5 nM.
